The source of these data is publication PMC8133002, “Disruption of microtubule function in cultured human cells by a cytotoxic ruthenium(II) polypyridyl complex” (Chemical Science, 2019).

Broadly, the IC50 is the midpoint of a concentration-inhibition curve.

For data set [1], the target named is T1, preformed microtubules (polymerized porcine brain tubulin) (Sus scrofa, UniProt P02550+P02554).
T1 construct: For depolymerized porcine brain tubulin the calorimeter was set at 4 °C; purchased Cytoskeleton Inc., (Denver. CO); host or cells: porcine brain (tissue-purified)
T1 sequence (P02550 whole entry): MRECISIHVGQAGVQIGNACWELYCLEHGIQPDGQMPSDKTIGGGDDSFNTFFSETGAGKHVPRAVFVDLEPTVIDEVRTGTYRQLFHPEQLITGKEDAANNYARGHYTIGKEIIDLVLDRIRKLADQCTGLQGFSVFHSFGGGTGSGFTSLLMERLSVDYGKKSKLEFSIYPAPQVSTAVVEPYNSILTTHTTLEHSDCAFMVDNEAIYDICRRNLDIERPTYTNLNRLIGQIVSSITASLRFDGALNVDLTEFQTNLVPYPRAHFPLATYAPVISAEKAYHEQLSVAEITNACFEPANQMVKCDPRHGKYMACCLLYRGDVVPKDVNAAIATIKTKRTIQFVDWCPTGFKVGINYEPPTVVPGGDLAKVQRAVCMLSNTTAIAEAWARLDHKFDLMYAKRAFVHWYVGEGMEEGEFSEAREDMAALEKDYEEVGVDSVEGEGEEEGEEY
T1 sequence (P02554 whole entry): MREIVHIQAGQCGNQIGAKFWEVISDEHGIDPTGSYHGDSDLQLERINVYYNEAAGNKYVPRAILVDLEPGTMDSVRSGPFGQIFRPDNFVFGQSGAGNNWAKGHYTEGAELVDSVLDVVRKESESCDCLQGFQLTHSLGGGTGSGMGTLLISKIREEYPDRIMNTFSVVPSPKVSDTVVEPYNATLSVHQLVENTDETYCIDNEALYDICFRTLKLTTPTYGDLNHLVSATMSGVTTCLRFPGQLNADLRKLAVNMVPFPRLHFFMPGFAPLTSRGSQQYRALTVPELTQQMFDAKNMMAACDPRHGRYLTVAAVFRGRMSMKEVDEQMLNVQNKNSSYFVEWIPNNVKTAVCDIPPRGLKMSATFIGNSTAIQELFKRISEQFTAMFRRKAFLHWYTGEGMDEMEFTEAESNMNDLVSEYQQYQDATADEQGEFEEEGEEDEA
The experiment in a line: Isothermal titration calorimetry, preformed microtubules at 37 °C. Particulars: ITC. It is filed as binding. How it is done: (§1) ITC experiments were performed using a Microcal VP-ITC (Malvern) instrument. For polymerized porcine brain tubulin the calorimeter was set at 37 °C. For depolymerized porcine brain tubulin the calorimeter was set at 4 °C. Tubulin concentration was kept below 3 mg mL^−1 to ensure that minimal microtubule formation before any polymerization assays were performed in preparation for ITC experiments. Reverse titrations were used in all ITC experiments due to the low solubility of RPC2 in aqueous solutions. A typical ITC experiment involved fourteen 20 μL injections of tubulin (∼30 μM heterodimers, or 2 mg mL^−1) into a 1.45 mL cell of ligand solution. The ITC thermograms were corrected for titrate and titrant dilution effects by performing the appropriate blank experiments and correcting the observed heats by subtracting the heats of dilution. Corrected ITC titrations were fit with a nonlinear regression algorithm using CHASM, an ITC data analysis program developed in the Lewis laboratory to determine the thermodynamic parameters, including the association constant (K) and changes in free energy (ΔG), enthalpy (ΔH), and entropy (−TΔS).
Isothermal titration calorimetry (ITC) was used to measure the binding thermodynamics of RPC2 with tubulin and MTs. Reverse titrations (protein introduced into solutions with a fixed ligand concentration) were done as the poor solubility of RPC2 limited its concentration range. […] Experiments were either performed starting at 4 °C or 37 °C to obtain a population of tubulin in the free, unpolymerized state (4 °C) or polymerized state as MTs (37 °C), as these two structures present a different collection of binding sites to the ligand.
(In general: In ITC the heat of successive injections is recorded.)

The test system of data set [2] is MTs. Also on record: method as in PMID 15057285, PMID 29523799. As to conditions: competitive binding titrations; cited from earlier work.
Data set [3] has as its system porcine brain tubulin. The experiment in a line: Isothermal titration calorimetry, free (unpolymerized) tubulin at 4 °C. Particulars: association constant, ITC. It is filed as binding. How it is done: as §1
Isothermal titration calorimetry (ITC) was used to measure the binding thermodynamics of RPC2 with tubulin and MTs. […]

Data set [4] deals with MCF7. In words: Cytotoxicity IC50 against MCF7 cells. It is filed as cell-based. As to conditions: Homo sapiens.
Data set [5] deals with HUVEC. As to conditions: cited from earlier work.
For data set [6], the system named is MCF10. Particulars: cited from earlier work.
Data set [7] has as its system microtubules formed from porcine brain tubulin. In words: Electron microscopy of polymerized tubulin. The class given is biochemical. As to conditions: 10 μM. The source says: Aliquots of polymerized tubulin were placed on 300-mesh carbon-coated, Formvar-treated copper grids and immediately stained with 5–10 successively applied drops of 1% (w/v) uranyl acetate. Excess stain was wicked from the grids with torn filter paper. The grids were examined in a Hitachi H-9500 High-resolution Transmission Electron Microscope.

The subject of data set [8] is H358. The experiment in a line: Cytotoxicity IC50 against H358 cells. It is filed as cell-based. As to conditions: Homo sapiens, NCI-H358.
For data set [9], the system named is mouse fibroblast cells. Set-up: method as in PMID 20059301. As to conditions: mouse fibroblast cell line; cited from earlier work.
Data set [10] deals with H358. Particulars: cited from earlier work.
Data set [11] relates to mouse fibroblast cells. Set-up: method as in PMID 6103535. Particulars: PTX 0.25 μM, cited from earlier work.
Data set [12] relates to free tubulin in H358 cells. The experiment in a line: Western blot of free tubulin in cytosol of H358 cells. It is filed as cell-based, human. Particulars: PTX 0.1 μM or RPC2 1.7 μM, 12 h. The protocol: […] The confluent 60 mm dishes of cells were washed 3 times with 37 °C PBS, then lysed in microtubule stabilization buffer (Tris–HCl pH 6.8, 20 mM, NaCl 140 mM, MgCl2 1 mM, NP40 0.5%, EGTA 2 mM, 10 μM of Taxol) and protease inhibitors (100× Protease Inhibitor Cocktail (PIC) and 100× phenylmethane sulfonyl fluoride (PMSF)). Then, the cells were scraped, mixed and quickly transfer to microtubes. These samples were then spun at 10 000 rpm for 20 minutes, the supernatants containing free tubulin were collected and a bicinchoninic acid (BCA) protein assay was performed to check the protein quantity. Equal amounts of protein sample were prepared in Laemmli sample buffer and were boiled for 5 min at 95 °C. Proteins were resolved on a 12% polyacrylamide gel. The proteins were transferred to a nitrocellulose membrane for 1.5 h at 100 V. The nitrocellulose membrane was stained for 1 min with Ponceau Red to verify the efficiency of the transfer. Then, the membrane was blocked in 5% skim milk for 1 h at room temperature and incubated with primary alpha tubulin monoclonal antibody in 5% BSA overnight at 4 °C. The membrane was washed 3 times with TBST buffer before being probed with secondary antibodies conjugated to HRP, then the membrane was incubated for 1 h at room temperature before it was washed 3 times again with TBST buffer. […]
On the technique in general: A western blot detects proteins with antibodies after separation by electrophoresis.

In data set [13] the test system is MCF7 and MCF10a cells expressing GFP-EB3. The experiment in a line: Spinning disk confocal imaging of GFP-EB3 comets in live cells. Particulars: IC50 dose. The class given is cell-based, human. The protocol:
MCF7 cells were cultured in phenol-red DMEM media (HyClone™, GE healthcare) supplemented with 10% FBS and penicillin/streptomycin at 37 °C in 5% CO2. MCF10A cells were cultured in low-calcium phenol-red DMEM/F12 (HyClone™, GE healthcare) supplemented with final concentration of 5% horse serum, 20 ng mL^−1 EGF, […] hydrocortisone, 100 ng mL^−1 Cholera toxin, 10 μg mL^−1 insulin, and 1% pen-strep. For live imaging, 500 000 cells per mL of both MCF7 and MCF10A cells were transfected with the cDNA (EGFP-EB3), and then cultured on 10 μg mL^−1 fibronectin coated 35 mm glass-bottom dishes (Cellvis, cat#: D35-20-1.5-N). Transfection of EGFP-EB3 was performed using a Lonza Nucleofector Device with Ingenio electroporation kit (Cat# MIR 50112, Mirus). Cells were treated with RPC2 18–24 hours post-transfection to allow time for cDNA expression. To minimize photobleaching, phenol-free DMEM was supplemented with 10% FBS and 25 mM HEPES, pH = 7.2 replaced the original media and was administered before RPC2 treatment. Time-lapse imaging was obtained before, 30 min, 1 h, 2 h, and 3 h after RPC2 treatment for both MCF7 and MCF10A. Images were obtained on a Zeiss Axiovert (Jena, Germany) microscope with a Zeiss alpha Plan-Fluar 100×, 1.45 NA oil objective and a spinning disk confocal scan head (Yokogawa CSU-X1, Tokyo, Japan). […]

The conditions of data set [14]: rats, intraperitoneal injection; cited from earlier work.
The conditions of data set [15]: mice, intraperitoneal injection; cited from earlier work.
Data set [16] deals with MCF10 and MCF7 cells. Set-up: method as in PMID 28605571. Particulars: cited from earlier work.

Where two headings read alike, the source gives them in different places.

Consider `CC(=O)O[C@@]12CO[C@@H]1C[C@H](O)[C@@]1(C)C(=O)[C@H](O)C3=C(C)[C@@H](OC(=O)[C@H](O)[C@@H](NC(=O)OC(C)(C)C)c4ccccc4)C[C@@](O)([C@@H](OC(=O)c4ccccc4)[C@H]21)C3(C)C` [DTX, docetaxel], for which the ΔG in data set [1] (MT, 37 °C) is -9.2 ± 0.9 kcal/mol. In data set [1] (MT, 37 °C), this molecule came in with a ΔH of -33.4 ± 6.5 kcal/mol. Also, the Kd in data set [1] (preformed MTs, read-out: associative binding constant K to preformed microtubules (converted)) is 182 nM. In addition, the K in data set [1] (association constant, MT, 37 °C) was 5.5e+06 M⁻¹; in data set [3], 8.1e+06 M⁻¹. Also, the “association constant with MTs” value in data set [2] was 3.09e+07 M⁻¹.

`COC(=O)Nc1nc2ccc(C(=O)c3cccs3)cc2[nH]1` [NCZ, nocodazole]: the concentration for half-maximal inhibition (IC50) in data set [4] is 3200 nM; in data set [5], 200 nM; in [6], 480 nM; in data set [8], 1000 nM. The “Appearance of MTs in TEM images” value in data set [7] is recorded as “only small MT fragments or tubulin dimers are apparent”.

Consider `CC(=O)O[C@H]1C(=O)[C@@]2(C)[C@H]([C@H](OC(=O)c3ccccc3)[C@]3(O)C[C@H](OC(=O)[C@H](O)[C@@H](NC(=O)c4ccccc4)c4ccccc4)C(C)=C1C3(C)C)[C@]1(OC(C)=O)CO[C@@H]1C[C@@H]2O` [PTX, paclitaxel], for which the IC50 is 860 nM in data set [9], 0.82 nM in data set [5], 100 nM in data set [10] and 200 nM in data set [6]. Besides, the results for the “population in G2/M” value in data set [11] (after 9 h) and in [11] (by 27 h) were about 50% and about 100%, respectively. Besides, the “Amount of free tubulin in the cytosol (western blot)” value in [12] is reported as “substantially reduce the amount of free tubulin”. Further, the “association constant with MTs” value in data set [2] is 1.07e+07 M⁻¹. Also, in [13], the “time point at which changes in MT comet motion were apparent” value is recorded as 30 min.

Consider `[106Ru+2].[O-][Cl+3]([O-])([O-])[O-].[O-][Cl+3]([O-])([O-])[O-].c1cnc2c(c1)ccc1cccnc12.c1cnc2c(c1)ccc1cccnc12.c1cnc2c(c1)ccc1cccnc12` [[^106Ru(phen)3][ClO4]2], for which the “time to excretion of the intact cation in the urine” value in [14] and in data set [15] was “about 12 h” each time.

In the case of [(DIP)2Ru(tatpp)Ru(DIP)2]^2+, the “selectivity index (SI = IC50 MCF10/IC50 MCF7)” value in data set [16] was 11.

Take [(DIP)2Ru(tatpp)]^2+: the “selectivity index (SI = IC50 MCF10/IC50 MCF7)” value in data set [16] was 71.
